Results published in paper PMC11152041, “Tricarbonyl rhenium(I) complexes with 8-hydroxyquinolines: structural, chemical, antibacterial, and anticancer characteristics” (RSC Advances, 2024).
Values after ≈ are worked out from the molar mass of the structure shown. Like-named read-outs stand apart in the source and are kept apart here.

Experiments:
E. faecalis ATCC29212 = experiment: Broth microdilution MIC/MBC (ISO 20776-1); assay type: cell-based, Enterococcus faecalis; conditions: for MBC: E. faecalis ATCC29212, >99.99% reduction of growth; for MIC: E. faecalis ATCC29212, MH II broth, 35 °C, 24 h
Experimental: (§1) Bacterial strains and cell lines were obtained from the American Type Culture Collection (ATCC).[59] […] Antimicrobial activity was tested in Müeller Hinton (MH) II broth (Becton Dickinson). For anticancer activity assay, the following reagents from Merk were used: 3-(4,5-dimethylthiazol-2-yl)-2,5-diphenyltetrazolium bromide (MTT), sodium dodecyl sulfate (SDS) and HCl. The solubilized formazan product was spectrophotometrically quantified in a Power Wave XS (Bio Tek, Winooski, VT, USA) microplate reader. The HL-60 and PC-3 cells were grown in RPMI-1640 medium with stable glutamine (Biowest) supplemented with 10% (v/v) of heat-inactivated fetal bovine serum (FBS, Biowest) and 1% (v/v) of antibiotic–antimycotic solution (Biowest). The SKOV-3 cells were grown in McCoy's 5A medium with L-glutamine (Biowest) supplemented with 10% (v/v) heat-inactivated FBS, and 1% (v/v) antibiotic–antimycotic solution. The MCF-7 cells were grown in Eagle's MEM (Minimal Essential Medium) medium with stable glutamine (Biowest), supplemented with 10% (v/v) heat-inactivated FBS 1% (v/v) MEM non-essential amino acids (Biowest), 1% (v/v) antibiotic–antimycotic solution, and 1 mM sodium pyruvate (Merck). The MCF-10A cells were grown in Ham's F-12K (Kaighn's) Medium with stable glutamine (Gibco) supplemented with 5% (v/v) heat-inactivated FBS, 1% (v/v) MEM non-essential amino acids, 1% (v/v) antibiotic–antimycotic solution, 5 μg mL^−1 insulin, 0.04 μg mL^−1 hydrocortisone (Merck), and 15 ng mL^−1 human Epidermal Growth Factor (hEGF, PeproTech).
(§2) The in vitro antibacterial activity was determined according to ISO 20776-1.[88] Among the tested microorganisms were Gram-negative rods, E. coli ATCC25922 and P. aeruginosa ATCC27853, and Gram-positive cocci, S. aureus ATCC29213 and E. faecalis ATCC29212. The selected bacterial species represented the most common etiologic agents of human infections and are used for quality control of antimicrobial susceptibility testing.[89] The test procedure included the determination of MICs and MBCs of complexes and their free ligands. MIC and MBC determinations of ciprofloxacin, as the reference antibiotic, were also performed. All compounds were dissolved in DMSO to reach the maximum 512 mg L^−1 concentration. […] The assay consisted of preparing 2-fold dilutions of the substances in a liquid growth medium MH II and inoculating them with a standardized suspension of microorganisms at a McFarland density of 0.5 (≈10^8 CFU mL^−1). The culture plates were incubated at 35 °C for 24 h. The lowest concentration of the compound inhibiting visible bacterial growth was specified as MIC, and the concentration that reduced bacterial growth by >99.99% after counting live bacteria on the plates compared to the positive control was defined as MBC.

S. aureus ATCC29213 = experiment: Broth microdilution MIC/MBC (ISO 20776-1); assay type: cell-based, Staphylococcus aureus; conditions: for MBC: S. aureus ATCC29213, >99.99% reduction of growth; for MIC: S. aureus ATCC29213, MH II broth, 35 °C, 24 h
Experimental: as §1, §2

E. coli ATCC25922 = experiment: Broth microdilution MIC/MBC (ISO 20776-1); assay type: cell-based, Escherichia coli; conditions: for MBC: E. coli ATCC25922, >99.99% reduction of growth; for MIC: E. coli ATCC25922, MH II broth, 35 °C, 24 h
Experimental: as §1, §2

P. aeruginosa ATCC27853 = experiment: Broth microdilution MIC/MBC (ISO 20776-1); assay type: cell-based, Pseudomonas aeruginosa; conditions: for MBC: P. aeruginosa ATCC27853, >99.99% reduction of growth; for MIC: P. aeruginosa ATCC27853, MH II broth, 35 °C, 24 h
Experimental: as §1, §2

MCF-10A cells = experiment: MTT cytotoxicity assay
Experimental: (§3) The cytotoxicities for studied compounds were evaluated against leukemia cells (HL-60), as well as ovarian (SKOV-3), prostate (PC-3), and breast (MCF-7) cancer cell lines. The potential selectivity of these compounds towards cancer cells was assessed by determination of their cytotoxicities towards breast non-cancerous cells (MCF-10A). For comparison, cisplatin was added to the cytotoxicity assays.
as §1
(§4) The cells were cultured in 96-well plates and incubated with the tested compound for 24 h and 48 h. All experiments were performed in exponentially growing cultures. The 0.03 M solutions of the compounds in DMSO were appropriately diluted using culture media. The maximal final concentration of DMSO in each well was 0.1%. The cytotoxicity of the compounds was measured by determining cell viability with a colorimetric test based on 3-(4,5-dimethylthiazol-2-yl)-2,5-diphenyltetrazolium bromide (MTT). MTT stock solution was added to each well to a final concentration of 0.5 mg mL^−1 and incubated for 4 h at 37 °C; following formazan crystals were dissolved by the addition of sodium dodecyl sulfate (SDS) solution (10% SDS in 0.001 M HCl). MTT and SDS were added directly to the cell culture. The compound's IC50 values (concentration required to reduce the viability of cells by 50% compared with the control cells) were calculated from the data obtained with the MTT assay.

SKOV-3 cells = experiment: MTT cytotoxicity assay; assay type: cell-based, human; conditions: MTT, read-out: IC50 ± SD
Experimental: as §3, §1, §4

PC-3 cells = experiment: MTT cytotoxicity assay; assay type: cell-based, human; conditions: MTT, read-out: IC50 ± SD
Experimental: as §3, §1, §4

HL-60 cells = experiment: MTT cytotoxicity assay; assay type: cell-based, human
Experimental: as §3, §1, §4

MCF-7 cells = experiment: MTT cytotoxicity assay; assay type: cell-based, human; conditions: for IC50: MTT, read-out: IC50 ± SD
Experimental: as §3, §1, §4

[1] = Stability of the complexes in DMSO by NMR (exchange of pyrazole ligand with DMSO); assay type: physicochemical
Experimental: In 3, after two days, an equilibrium between the Hdmpz and DMSO complexes stabilizes at 77% to 23% ratio (Fig. S34 ^†). Complex 3 can be recovered from the mixture by DMSO evaporation and the complex with water is even weaker. In the case of 3-phenylpyrazole in 8, the complex amount drops to 50% immediately after dissolving and after 24 h reaches ratio of 39% to 61% (Fig. S35 ^†).
The chemicals were purchased from Sigma-Aldrich and only 5-chloro-8-hydroxyquinoline from TCI. Their purity was 98 or 99% (for 3-phenylpyrazole – 97%). Anhydrous solvents with HPLC grade (≥99.9%) were applied. All chemicals were used without further purification. Elemental analysis was performed on an Elementar Vario EL III analyzer. UV-Vis spectra of methanol solutions were recorded in the 200–900 nm range with a Jasco V-750 spectrometer. Infrared absorption spectra in the 400–4000 cm^−1 range were recorded with a Thermo Scientific Nicolet iS10 FT-IR spectrometer using KBr pellets. ^1H and ^13C NMR spectra of DMSO-d6 or CDCl3 solutions were recorded at 25 °C on a Varian VNMRS-500 or Varian 400MR spectrometer operated at 499.8 and 400 MHz, respectively. The NMR spectra were referenced to the internal reference of tetramethylsilane (TMS).

[2] = read-out: IC50 ± SD, MCF-10A (non-cancerous), 24 h, MTT, * precipitation of the complex
[3] = read-out: IC50 ± SD, MCF-10A (non-cancerous), 48 h, MTT, * precipitation of the complex
[4] = HL-60, 24 h, MTT, read-out: IC50 ± SD
[5] = HL-60, 48 h, MTT, read-out: IC50 ± SD

Row | Molecule | MBC (E. faecalis ATCC29212) [µg/mL] | MIC (E. faecalis ATCC29212) [µg/mL] | MBC (S. aureus ATCC29213) | MIC (S. aureus ATCC29213) | MBC (E. coli ATCC25922) | MIC (E. coli ATCC25922) | MBC (P. aeruginosa ATCC27853) | MIC (P. aeruginosa ATCC27853) | IC50 (MCF-10A cells; [2]) [µM] | IC50 (MCF-10A cells; [3]) [µM] | IC50 (SKOV-3 cells; SKOV-3, 24 h) [µM] | IC50 (SKOV-3 cells; SKOV-3, 48 h) [µM] | IC50 (PC-3 cells; PC-3, 24 h) [µM] | IC50 (PC-3 cells; PC-3, 48 h) [µM] | IC50 (HL-60 cells; [4]) [µM] | IC50 (HL-60 cells; [5]) [µM] | IC50 (MCF-7 cells; MCF-7, 24 h) [µM] | IC50 (MCF-7 cells; MCF-7, 48 h) [µM] | other results
1 | Cc1ccc2cccc([O][Re])c2n1.[C-]#[O+].[C-]#[O+].[C-]#[O+].c1ccc(-c2ccn[nH]2)cc1 [complex 8, [Re(CO)3(MeQ)HPhpz]] | > 512 | 32 | > 512 mg/L | 128 mg/L | >512/>512 mg L^−1 | >512/>512 mg L^−1 | >512/>512 mg L^−1 | >512/>512 mg L^−1 | 36 ± 1 | 21 ± 4 | > 100 | 41 ± 7 | 39 ± 5 | 31 ± 5 | 9 ± 1 | 8 ± 1 | 68 ± 4 | 53 ± 3 | share of the DMSO complex ([1]; after 24 h): 61%; share of the HPhpz complex ([1]; after 24 h): 39%; complex amount ([1]; immediately after dissolving): 50%
2 | Cc1cc(C)[nH]n1.[C-]#[O+].[C-]#[O+].[C-]#[O+].[Re][O]c1cccc2cccnc12 [complex 3, [Re(CO)3(Q)Hdmpz]] | 512 | 128 | 512/>512 mg L^−1 | 512/>512 mg L^−1 | >512/>512 mg L^−1 | >512/>512 mg L^−1 | >512/>512 mg L^−1 | >512/>512 mg L^−1 | > 100 | > 100 | 32 ± 7 | 31 ± 7 | 14 ± 2 | 16 ± 2 | 7 ± 2 | 6 ± 1 | 19 ± 2 | 29 ± 5 | IC50 / activity on normal cells (MCF-10A cells; MCF-10A, incubation time not given): no activity; IC50 (MCF-10A cells; read-out: IC50 / activity on normal cells, MCF-10A, incubation time not given): > 100 µM; share of the DMSO complex at equilibrium ([1]; after two days): 23%; share of the Hdmpz complex at equilibrium with the DMSO complex ([1]; after two days): 77%
3 | [Re(CO)3(ClQ)MeHim]·CH3CN [complex 10] | > 512 | 4 | > 512 mg/L | 64 mg/L | 512/>512 mg L^−1 | 512/>512 mg L^−1 | 512/>512 mg L^−1 | 512/>512 mg L^−1 | 15 ± 1 | 12 ± 1 | 34 ± 5 | 32 ± 7 | 23 ± 2 | 23 ± 2 | 5 ± 1 | 7 ± 1 | 54 ± 4 | 53 ± 4 | 
4 | Oc1ccc(Cl)c2cccnc12 [ClHQ, 5-chloro-8-hydroxyquinoline, reference compound] |  |  |  |  |  |  |  |  |  |  |  |  |  |  |  |  |  |  | MBC (E. faecalis ATCC29212; Enterococcus faecalis, read-out: MBC): < 0.5 µg/mL; MIC (E. faecalis ATCC29212; Enterococcus faecalis, read-out: MIC): < 0.5 µg/mL; MBC (S. aureus ATCC29213; Staphylococcus aureus, read-out: MBC): 32 mg/L (≈ 178 µM); MIC (S. aureus ATCC29213; Staphylococcus aureus, read-out: MIC): 8 mg/L (≈ 44.5 µM); MBC (E. coli ATCC25922; Escherichia coli, read-out: MBC): > 512 µg/mL; MIC (E. coli ATCC25922; Escherichia coli, read-out: MIC): 16 µg/mL (≈ 89.1 µM); MBC (P. aeruginosa ATCC27853; Pseudomonas aeruginosa, read-out: MBC): > 512 µg/mL; MIC (P. aeruginosa ATCC27853; Pseudomonas aeruginosa, read-out: MIC): 256 µg/mL (≈ 1430 µM); IC50 (MCF-10A cells; Homo sapiens, MCF-10A, 24 h, read-out: IC50 ± SD): > 100 µM; IC50 (MCF-10A cells; Homo sapiens, MCF-10A, 48 h, read-out: IC50 ± SD): 70 ± 1 µM; IC50 (SKOV-3 cells; Homo sapiens, SK-OV-3, SKOV-3, 24 h): > 100 µM; IC50 (SKOV-3 cells; Homo sapiens, SK-OV-3, SKOV-3, 48 h): 42 ± 7 µM; IC50 (PC-3 cells; Homo sapiens, PC-3, 24 h): 25 ± 3 µM; IC50 (PC-3 cells; Homo sapiens, PC-3, 48 h): 39 ± 3 µM; IC50 (HL-60 cells; Homo sapiens, HL-60, 24 h, MTT, read-out: IC50 ± SD): 1.7 ± 0.1 µM; IC50 (HL-60 cells; Homo sapiens, HL-60, 48 h, MTT, read-out: IC50 ± SD): 1.6 ± 0.4 µM; IC50 (HL-60 cells; Homo sapiens, HL-60, incubation time not stated in the text (24 and 48 h), read-out: IC50): < 2 µM; IC50 (MCF-7 cells; Homo sapiens, MCF7, MCF-7, 24 h): 32 ± 8 µM; IC50 (MCF-7 cells; Homo sapiens, MCF7, MCF-7, 48 h): 13 ± 5 µM; selectivity: IC50 for normal cells times higher than for breast cancer cells (MCF-7 cells; MCF-10A versus MCF-7): at least 3 times
